Data on ten molecules can be found in patent US20080287479A1, “INHIBITORS OF SERINE PALMITOYLTRANSFERASE” (Pfizer Inc, priority 2006, published 2008).

The IC50 is the concentration that inhibits the measured activity by half. A high value points to weaker potency in that assay. As usually defined, the pIC50 is the IC50 on a negative log10 scale, so that one unit is a factor of ten.

pIC50: −log10 of the molar value. Where a name gives a salt, the structure may show the parent alone.

For the first test, the target named is T1, Serine Palmitoyl Transferase (SPT); microsomes from HEK 293 cells stably transfected with human LCB2 subunit of SPT (Homo sapiens, UniProt O15270).
T1 construct: expressed in transfected cells; host or cells: HEK 293 cells stably transfected with LCB2; microsomal fraction
T1 sequence (O15270 1-562): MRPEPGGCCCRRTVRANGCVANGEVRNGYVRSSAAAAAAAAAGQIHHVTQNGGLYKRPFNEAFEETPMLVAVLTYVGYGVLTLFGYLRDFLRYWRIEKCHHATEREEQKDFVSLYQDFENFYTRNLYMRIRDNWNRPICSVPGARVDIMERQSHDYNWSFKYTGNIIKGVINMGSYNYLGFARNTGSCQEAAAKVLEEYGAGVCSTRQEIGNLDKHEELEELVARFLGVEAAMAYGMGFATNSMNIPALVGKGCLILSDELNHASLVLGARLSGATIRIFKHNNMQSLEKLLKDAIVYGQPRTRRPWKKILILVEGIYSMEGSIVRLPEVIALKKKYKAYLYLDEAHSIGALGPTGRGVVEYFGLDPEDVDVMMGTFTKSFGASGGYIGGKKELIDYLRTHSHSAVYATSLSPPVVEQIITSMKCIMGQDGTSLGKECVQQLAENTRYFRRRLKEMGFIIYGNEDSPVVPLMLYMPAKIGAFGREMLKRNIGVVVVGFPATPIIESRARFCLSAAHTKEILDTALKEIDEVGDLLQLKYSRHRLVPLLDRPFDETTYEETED
T1 sequence (O15269 1-473 partner): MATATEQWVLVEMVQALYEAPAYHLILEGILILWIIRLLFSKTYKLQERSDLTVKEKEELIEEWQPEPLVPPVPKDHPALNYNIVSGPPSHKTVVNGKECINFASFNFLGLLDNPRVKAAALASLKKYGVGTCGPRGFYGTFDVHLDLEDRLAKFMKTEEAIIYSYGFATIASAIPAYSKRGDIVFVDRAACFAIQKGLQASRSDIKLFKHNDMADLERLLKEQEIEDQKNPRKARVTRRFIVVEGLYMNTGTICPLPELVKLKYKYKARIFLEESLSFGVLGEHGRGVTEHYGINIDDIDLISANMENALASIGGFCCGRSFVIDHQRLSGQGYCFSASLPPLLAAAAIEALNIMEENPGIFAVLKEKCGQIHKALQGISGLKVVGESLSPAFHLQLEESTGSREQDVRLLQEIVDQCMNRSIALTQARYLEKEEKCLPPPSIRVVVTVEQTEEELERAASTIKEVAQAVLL
T1 sequence (Q969W0 1-71 partner): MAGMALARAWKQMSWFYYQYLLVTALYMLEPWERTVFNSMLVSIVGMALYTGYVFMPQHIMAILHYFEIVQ
Nature of the test: SPT flashplate assay. Type of test: biochemical. Conditions: SPTISF IC50 (nM).
Take `CNC(=O)c1ccc2c(c1)CC(=O)N2C1CCN(CC(=O)N2CCC(C)(OC)CC2)CC1` [Example 19, 1-[2-(4-methoxy-4-methylpiperidin-1-yl)-2-oxoethyl]-4-{5-[(methylamino)carbonyl]-2-oxo-2,3-dihydro-1H-indol-1-yl}piperidinium chloride]: the IC50 stood at 18.7 nM.

The test is the same for the next values; noted with them: microsomes of HEK 293 LCB2 cells, 3H-serine and palmitoyl CoA, phospholipid coated flashplate, 18-24 hours at room temperature; read-out: SPTISF IC50.
Take `CNC(=O)c1cc2[nH]c(=O)n(C3CCN(CC(=O)C4(C)CCCCC4)CC3)c2cc1F` [Example 17, 6-fluoro-N-methyl-1-{1-[2-(1-methylcyclohexyl)-2-oxoethyl]piperidin-4-yl}-2-oxo-2,3-dihydro-1H-benzimidazole-5-carboxamide]: the pIC50 is 8.15.

As for `CC(C)(C)C1CCC(C(=O)CN2CCC(n3c(=O)[nH]c4cc(S(C)(=O)=O)ccc43)CC2)CC1` (stereo not shown) [Example 45, 1-{1-[2-(4-tert-butylcyclohexyl)-2-oxoethyl]piperidin-4-yl}-5-(methylsulfonyl)-1,3-dihydro-2H-benzimidazol-2-one], the pIC50 was 6.48.

For `CC1CCC(C(=O)CN2CCC(n3c(=O)[nH]c4cc(S(C)(=O)=O)ccc43)CC2)CC1` (stereo not shown) [Example 42, 1-{1-[2-(4-methylcyclohexyl)-2-oxoethyl]piperidin-4-yl}-5-(methylsulfonyl)-1,3-dihydro-2H-benzimidazol-2-one], the pIC50 was 7.23.

Take `CNC(=O)c1cc2[nH]c(=O)n(C3CCN(CC(=O)C4CCC(F)(F)CC4)CC3)c2cc1F` [Example 12, 1-{1-[2-(4,4-difluorocyclohexyl)-2-oxoethyl]piperidin-4-yl}-6-fluoro-N-methyl-2-oxo-2,3-dihydro-1H-benzimidazole-5-carboxamide]: the negative-log IC50 (pIC50) is 8.28.

For the molecule `CNC(=O)c1cc2[nH]c(=O)n(C3CCN(CC(=O)C4CCC(C)(OC)CC4)CC3)c2cc1F` (stereo not shown) [Example 16, 6-fluoro-1-{1-[2-(4-methoxy-4-methylcyclohexyl)-2-oxoethyl]piperidin-4-yl}-N-methyl-2-oxo-2,3-dihydro-1H-benzimidazole-5-carboxamide], the pIC50 is 7.28.

`CNC(=O)c1cc2[nH]c(=O)n(C3CCN(CC(=O)N4CCC(C)(C)CC4)CC3)c2cc1F` [Example 26, 1-[2-(4,4-dimethylpiperidin-1-yl)-2-oxoethyl]-4-{6-fluoro-5-[(methylamino)carbonyl]-2-oxo-2,3-dihydro-1H-benzimidazol-1-yl}piperidinium chloride]: the pIC50 was 8.12.

With `CC1(C)CCN(C(=O)CN2CCC(n3c(=O)[nH]c4cc(S(C)(=O)=O)ccc43)CC2)CC1` [Example 40, 1-{1-[2-(4,4-dimethylpiperidin-1-yl)-2-oxoethyl]piperidin-4-yl}-5-(methylsulfonyl)-1,3-dihydro-2H-benzimidazol-2-one hydrochloride], the pIC50 was 7.89.

Turning to `CNC(=O)c1cc2[nH]c(=O)n(C3CC4CCC(C3)N4CC(=O)N3CCC(C)(OC)CC3)c2cc1F` (stereo not shown) [Example 49, 6-fluoro-1-{8-[2-(4-methoxy-4-methylpiperidin-1-yl)-2-oxoethyl]-8-azabicyclo[3.2.1]oct-3-yl}-N-methyl-2-oxo-2,3-dihydro-1H-benzimidazole-5-carboxamide trifluloroacetate], the pIC50 was 6.78.

Regarding `CS(=O)(=O)c1ccc2c(c1)[nH]c(=O)n2C1CCN(CC(=O)C2CCC(C(F)(F)F)CC2)CC1` (stereo not shown) [Example 44, 1-{1-[2-(4-trifluoromethylcyclohexyl)-2-oxoethyl]piperidin-4-yl}-5-(methylsulfonyl)-1,3-dihydro-2H-benzimidazol-2-one], the pIC50 is 7.29.
